Results published in PubChem BioAssay (NCI).
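Assay format: 96-well plates, 48-hour exposure. GI50 is the concentration that inhibits growth by half. TGI marks complete inhibition of growth.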

Legend:
Assay in all cases: growth of human tumour cells (NCI), 48 h
OVCAR-8 ovarian = tested on: OVCAR-8 ovarian
SK-MEL-2 melanoma = tested on: SK-MEL-2 melanoma
ACHN renal = tested on: ACHN renal
SK-MEL-28 melanoma = tested on: SK-MEL-28 melanoma
SN12C renal = tested on: SN12C renal
NCI/ADR-RES ovarian = tested on: NCI/ADR-RES ovarian
DU-145 prostate = tested on: DU-145 prostate
SF-295 CNS = tested on: SF-295 CNS
NCI-H226 lung = tested on: NCI-H226 lung
LOX IMVI melanoma = tested on: LOX IMVI melanoma
OVCAR-3 ovarian = tested on: OVCAR-3 ovarian
SW-620 colon = tested on: SW-620 colon
NCI-H23 lung = tested on: NCI-H23 lung
HOP-92 NSCLC = tested on: HOP-92 NSCLC
MDA-MB-468 breast = tested on: MDA-MB-468 breast
MDA-MB-231 breast = tested on: MDA-MB-231 breast
HCC-2998 colon = tested on: HCC-2998 colon
SK-MEL-5 melanoma = tested on: SK-MEL-5 melanoma
OVCAR-4 ovarian = tested on: OVCAR-4 ovarian
UO-31 renal = tested on: UO-31 renal
TK-10 renal = tested on: TK-10 renal
M14 melanoma = tested on: M14 melanoma
CAKI-1 renal = tested on: CAKI-1 renal
HS 578T breast = tested on: HS 578T breast
OVCAR-5 ovarian = tested on: OVCAR-5 ovarian
RPMI-8226 leukemia = tested on: RPMI-8226 leukemia
MCF7 breast = tested on: MCF7 breast
SNB-75 CNS = tested on: SNB-75 CNS
SNB-19 CNS = tested on: SNB-19 CNS
PC-3 prostate = tested on: PC-3 prostate
SF-539 CNS = tested on: SF-539 CNS
T-47D breast = tested on: T-47D breast
UACC-257 melanoma = tested on: UACC-257 melanoma
HOP-62 NSCLC = tested on: HOP-62 NSCLC
EKVX NSCLC = tested on: EKVX NSCLC
RXF 393 renal = tested on: RXF 393 renal
BT-549 breast = tested on: BT-549 breast
HCT-116 colon = tested on: HCT-116 colon
NCI-H522 lung = tested on: NCI-H522 lung
HCT-15 colon = tested on: HCT-15 colon
HL-60(TB) leukemia = tested on: HL-60(TB) leukemia
MDA-MB-435 = tested on: MDA-MB-435
COLO 205 colon = tested on: COLO 205 colon
UACC-62 melanoma = tested on: UACC-62 melanoma
CCRF-CEM leukemia = tested on: CCRF-CEM leukemia
SF-268 CNS = tested on: SF-268 CNS
MOLT-4 leukemia = tested on: MOLT-4 leukemia
IGROV1 ovarian = tested on: IGROV1 ovarian
A498 renal = tested on: A498 renal
KM12 colon = tested on: KM12 colon
MALME-3M melanoma = tested on: MALME-3M melanoma

`COc1ccc(-c2nc3cc(C)ccc3n2CC(=O)N=Nc2c(O)[nH]c3ccc(Cl)cc23)cc1` was tested, and the GI50 (OVCAR-8 ovarian) was 1.82 µM, the TGI (OVCAR-8 ovarian) was 3.77 µM and the GI50 (SK-MEL-2 melanoma) was 3.25 µM. The TGI (SK-MEL-2 melanoma) was 18.6 µM, the GI50 (ACHN renal) was 2.1 µM and the TGI (ACHN renal) was 5.67 µM. It also gave a GI50 (SK-MEL-28 melanoma) of 1.82 µM, a TGI (SK-MEL-28 melanoma) of 3.39 µM and a GI50 (SN12C renal) of 2 µM. For the same molecule, the TGI (SN12C renal) was 6.18 µM, the GI50 (NCI/ADR-RES ovarian) was 2.48 µM and the TGI (NCI/ADR-RES ovarian) was 7.16 µM. The GI50 (DU-145 prostate) was 3.18 µM, the TGI (DU-145 prostate) was 16.2 µM and the GI50 (SF-295 CNS) was 2.49 µM. The TGI (SF-295 CNS) was 8 µM, the GI50 (NCI-H226 lung) was 1.9 µM and the TGI (NCI-H226 lung) was 5.18 µM. It also gave a GI50 (LOX IMVI melanoma) of 1.78 µM, a TGI (LOX IMVI melanoma) of 3.93 µM and a GI50 (OVCAR-3 ovarian) of 1.88 µM. For the same molecule, the TGI (OVCAR-3 ovarian) was 3.8 µM, the GI50 (SW-620 colon) was 2.35 µM and the TGI (SW-620 colon) was 6.59 µM. For the same molecule, the GI50 (NCI-H23 lung) was 2.83 µM, the TGI (NCI-H23 lung) was 11.3 µM and the GI50 (HOP-92 NSCLC) was 1.48 µM. It also gave a TGI (HOP-92 NSCLC) of 4.63 µM, a GI50 (MDA-MB-468 breast) of 2.29 µM and a TGI (MDA-MB-468 breast) of 5.05 µM. The GI50 (MDA-MB-231 breast) was 1.96 µM, the TGI (MDA-MB-231 breast) was 4.8 µM and the GI50 (HCC-2998 colon) was 3.16 µM. For the same molecule, the TGI (HCC-2998 colon) was > 100 µM, the GI50 (SK-MEL-5 melanoma) was 2.07 µM and the TGI (SK-MEL-5 melanoma) was 4.9 µM. For the same molecule, the GI50 (OVCAR-4 ovarian) was 2.35 µM, the TGI (OVCAR-4 ovarian) was 6.5 µM and the GI50 (UO-31 renal) was 3.81 µM. For the same molecule, the TGI (UO-31 renal) was > 100 µM, the GI50 (TK-10 renal) was 3.43 µM and the TGI (TK-10 renal) was > 100 µM. The GI50 (M14 melanoma) was 1.9 µM, the TGI (M14 melanoma) was 4.02 µM and the GI50 (CAKI-1 renal) was 2.35 µM. The TGI (CAKI-1 renal) was 24.6 µM, the GI50 (HS 578T breast) was 1.79 µM and the TGI (HS 578T breast) was 6.03 µM. It also gave a GI50 (OVCAR-5 ovarian) of 2.63 µM, a TGI (OVCAR-5 ovarian) of 10.1 µM and a GI50 (RPMI-8226 leukemia) of 3.01 µM. For the same molecule, the TGI (RPMI-8226 leukemia) was > 100 µM, the GI50 (MCF7 breast) was 2.69 µM and the TGI (MCF7 breast) was 16.2 µM. For the same molecule, the GI50 (SNB-75 CNS) was 0.532 µM, the TGI (SNB-75 CNS) was 4.09 µM and the GI50 (SNB-19 CNS) was 2.73 µM. The TGI (SNB-19 CNS) was 9.29 µM, the GI50 (PC-3 prostate) was 2.38 µM and the TGI (PC-3 prostate) was 8.6 µM. The GI50 (SF-539 CNS) was 1.76 µM, the TGI (SF-539 CNS) was 3.41 µM and the GI50 (T-47D breast) was 2.73 µM. For the same molecule, the TGI (T-47D breast) was > 100 µM, the GI50 (UACC-257 melanoma) was 2.1 µM and the TGI (UACC-257 melanoma) was 4.99 µM. The GI50 (HOP-62 NSCLC) was 2.13 µM, the TGI (HOP-62 NSCLC) was 5.97 µM and the GI50 (EKVX NSCLC) was 1.91 µM. For the same molecule, the TGI (EKVX NSCLC) was 5.61 µM, the GI50 (RXF 393 renal) was 1.49 µM and the TGI (RXF 393 renal) was 3.9 µM. The GI50 (BT-549 breast) was 1.97 µM, the TGI (BT-549 breast) was 4.66 µM and the GI50 (HCT-116 colon) was 1.83 µM. For the same molecule, the TGI (HCT-116 colon) was 4 µM, the GI50 (NCI-H522 lung) was 3.99 µM and the TGI (NCI-H522 lung) was 22 µM. The GI50 (HCT-15 colon) was 3.64 µM, the TGI (HCT-15 colon) was > 100 µM and the GI50 (HL-60(TB) leukemia) was 4.36 µM. The TGI (HL-60(TB) leukemia) was > 100 µM, the GI50 (MDA-MB-435) was 2.29 µM and the TGI (MDA-MB-435) was 6.14 µM. It also gave a GI50 (COLO 205 colon) of 3.15 µM, a TGI (COLO 205 colon) of 10.2 µM and a GI50 (UACC-62 melanoma) of 1.58 µM. The TGI (UACC-62 melanoma) was 3.4 µM, the GI50 (CCRF-CEM leukemia) was 3.07 µM and the TGI (CCRF-CEM leukemia) was 60.2 µM. The GI50 (SF-268 CNS) was 3 µM, the TGI (SF-268 CNS) was > 100 µM and the GI50 (MOLT-4 leukemia) was 2.43 µM. The TGI (MOLT-4 leukemia) was > 100 µM, the GI50 (IGROV1 ovarian) was 3.22 µM and the TGI (IGROV1 ovarian) was 24.5 µM. The GI50 (A498 renal) was 3.63 µM, the TGI (A498 renal) was > 100 µM and the GI50 (KM12 colon) was 3.01 µM. The TGI (KM12 colon) was 10 µM, the GI50 (MALME-3M melanoma) was 2.12 µM and the TGI (MALME-3M melanoma) was 4.38 µM.
